Source: US10071957B2, “N-substituted benzamides and methods of use thereof” (GENENTECH, INC., priority 2012, dated 2018)
pIC50: −log10 of the molar value.

Legend:
hNaV1.5 = hNaV1.5 (Homo sapiens (Human), UniProt Q14524); assay: Patch voltage clamp electrophysiology, inactivated state block of NaV1.5 in HEK-293 cells; format: cell-based; conditions: HEK cells with β1 subunit, read-out: hNaV 1.5 IC50
Procedure: (§1) Patch voltage clamp electrophysiology allows for the direct measurement and quantification of block of voltage-gated sodium channels (NaV's), and allows the determination of the time- and voltage-dependence of block which has been interpreted as differential binding to the resting, open, and inactivated states of the sodium channel (Hille, B., Journal of General Physiology (1977), 69: 497-515).
(§2) The following patch voltage clamp electrophysiology studies were performed on representative compounds of the invention using human embryonic kidney cells (HEK), permanently transfected with an expression vector containing the full-length cDNA coding for the desired human sodium channel α-subunit, grown in culture media containing 10% FBS, 1% PSG, and 0.5 mg/mL G418 at 37° C. with 5% CO2. […] NaV1.7 and NaV1.5 cDNAs (NM_002977 and AC137587; SCN5A, respectively) were stably expressed in HEK-293 cells. The β1 subunit was coexpressed in both the NaV1.7 and NaV1.5 cell lines.
(§3) Sodium currents were measured using the patch clamp technique in the whole-cell configuration using either a PatchXpress automated voltage clamp or manually using an Axopatch 200B (Axon Instruments) or Model 2400 (A-M systems) amplifier. The manual voltage clamp protocol was as follows:
(§4) Borosilicate glass micropipettes were fire-polished to a tip diameter yielding a resistance of 2-4 Mohms in the working solutions. The pipette was filled with a solution comprised of: 5 mM NaCl, 10 mM CsCl, 120 mM CsF, 0.1 mM CaCl2, 2 mM MgCl2, 10 mM HEPES, 10 mM EGTA; and adjusted to pH 7.2 with CsOH. The external solution had the following composition: 140 mM NaCl, 5 mM KCl, 2 mM CaCl2, 1 mM MgCl2, 10 mM HEPES; and adjusted to pH 7.4 with NaOH. In some studies, the external sodium was reduced by equimolar replacement with choline. Osmolarity in the CsF internal and NaCl external solutions was adjusted to 300 mOsm/kg and 310 mOsm/kg with glucose, respectively. All recordings were performed at ambient temperature in a bath chamber with a volume of 150 μL. Control sodium currents were measured in 0.5% DMSO. Controls and representative compounds of the invention were applied to the recording chamber through a 4-pinch or 8-pinch valve bath perfusion system manufactured by ALA Scientific Instruments.
(§5) Currents were recorded at 40 kHz sampling frequency, filtered at […], and stored using a Digidata-1322A analogue/digital interface with the pClamp software (Axon Instruments). Series resistance compensation was applied (60-80%). […] All statistics in this study are given as mean±SD.
The membrane potential was maintained at a voltage where inactivation of the channel is complete (which was −60 mV for both NaV1.7 and NaV1.5). The voltage is then stepped back to a very negative (Vhold=[…]) voltage for 20 ms and then a test pulse is applied to quantify the compound block. The 20 ms brief repolarization was long enough for compound-free channels to completely recover from fast inactivation, but the compound-bound channels recovered more slowly such that negligible recovery could occur during this interval. The percent decrease in sodium current following wash-on of compound was taken as the percent block of sodium channels.

hNaV1.7 [1] = target: T1, hNaV1.7 (Homo sapiens (Human), UniProt Q15858); assay: Patch voltage clamp electrophysiology, inactivated state block of NaV1.7 in HEK-293 cells; format: cell-based; conditions: HEK cells with β1 subunit, read-out: hNaV 1.7 IC50
T1 sequence (Q15858 whole entry, looked up): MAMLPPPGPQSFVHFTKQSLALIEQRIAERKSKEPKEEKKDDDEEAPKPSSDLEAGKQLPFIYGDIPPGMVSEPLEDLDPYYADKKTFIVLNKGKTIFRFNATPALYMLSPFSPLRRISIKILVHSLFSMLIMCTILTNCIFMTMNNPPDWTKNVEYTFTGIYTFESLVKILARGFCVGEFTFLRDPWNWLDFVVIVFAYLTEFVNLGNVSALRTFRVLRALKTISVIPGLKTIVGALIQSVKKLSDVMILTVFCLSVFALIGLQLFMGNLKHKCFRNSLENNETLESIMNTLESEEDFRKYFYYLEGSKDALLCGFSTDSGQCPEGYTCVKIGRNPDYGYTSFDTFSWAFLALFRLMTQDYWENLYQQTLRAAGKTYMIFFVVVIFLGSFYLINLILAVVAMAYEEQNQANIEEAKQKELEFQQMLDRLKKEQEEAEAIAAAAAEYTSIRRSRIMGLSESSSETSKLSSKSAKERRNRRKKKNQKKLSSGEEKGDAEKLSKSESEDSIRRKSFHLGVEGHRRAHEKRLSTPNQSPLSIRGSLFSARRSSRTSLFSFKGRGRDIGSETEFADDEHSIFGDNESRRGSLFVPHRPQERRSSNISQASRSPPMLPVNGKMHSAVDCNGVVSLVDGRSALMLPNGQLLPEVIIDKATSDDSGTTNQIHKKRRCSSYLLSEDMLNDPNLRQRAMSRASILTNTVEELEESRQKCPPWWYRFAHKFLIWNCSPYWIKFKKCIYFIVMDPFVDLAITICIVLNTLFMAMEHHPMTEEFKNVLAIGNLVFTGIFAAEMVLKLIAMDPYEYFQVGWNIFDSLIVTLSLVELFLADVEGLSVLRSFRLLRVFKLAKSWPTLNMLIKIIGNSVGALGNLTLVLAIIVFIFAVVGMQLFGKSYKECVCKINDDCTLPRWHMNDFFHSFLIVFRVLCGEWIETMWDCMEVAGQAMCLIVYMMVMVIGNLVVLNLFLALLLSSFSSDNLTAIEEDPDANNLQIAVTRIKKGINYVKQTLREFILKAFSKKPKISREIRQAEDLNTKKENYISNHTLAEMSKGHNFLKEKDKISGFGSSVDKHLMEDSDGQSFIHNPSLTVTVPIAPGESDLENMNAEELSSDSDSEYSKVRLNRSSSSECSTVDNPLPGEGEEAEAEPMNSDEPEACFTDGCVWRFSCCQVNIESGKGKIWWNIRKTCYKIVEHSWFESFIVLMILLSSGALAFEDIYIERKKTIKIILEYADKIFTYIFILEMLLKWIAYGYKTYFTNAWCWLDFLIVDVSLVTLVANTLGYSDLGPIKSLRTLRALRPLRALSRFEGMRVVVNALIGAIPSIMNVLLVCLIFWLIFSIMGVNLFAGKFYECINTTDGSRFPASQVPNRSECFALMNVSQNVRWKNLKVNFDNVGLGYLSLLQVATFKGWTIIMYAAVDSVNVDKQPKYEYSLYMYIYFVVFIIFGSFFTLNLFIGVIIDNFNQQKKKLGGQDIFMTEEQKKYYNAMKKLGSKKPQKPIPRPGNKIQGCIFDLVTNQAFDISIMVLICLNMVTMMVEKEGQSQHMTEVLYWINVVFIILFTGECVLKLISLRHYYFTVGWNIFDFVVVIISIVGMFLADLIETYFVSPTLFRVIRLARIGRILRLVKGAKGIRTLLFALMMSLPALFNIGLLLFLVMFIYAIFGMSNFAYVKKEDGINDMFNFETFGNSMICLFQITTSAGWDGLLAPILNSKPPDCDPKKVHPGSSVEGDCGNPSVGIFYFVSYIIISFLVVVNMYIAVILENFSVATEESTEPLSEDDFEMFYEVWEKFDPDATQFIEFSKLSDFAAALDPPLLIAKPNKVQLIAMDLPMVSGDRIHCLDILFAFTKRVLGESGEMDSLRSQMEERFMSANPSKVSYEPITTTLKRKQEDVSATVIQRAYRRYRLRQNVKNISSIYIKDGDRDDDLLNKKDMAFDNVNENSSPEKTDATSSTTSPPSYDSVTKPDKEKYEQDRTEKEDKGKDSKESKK
T1 sequence (Q07699 whole entry partner, looked up): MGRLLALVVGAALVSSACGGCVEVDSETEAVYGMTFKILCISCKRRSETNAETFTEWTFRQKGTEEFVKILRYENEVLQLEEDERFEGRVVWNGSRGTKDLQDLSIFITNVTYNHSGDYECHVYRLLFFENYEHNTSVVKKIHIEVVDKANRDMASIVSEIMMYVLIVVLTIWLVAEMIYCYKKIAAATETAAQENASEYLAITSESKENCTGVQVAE
Procedure: as §1, §2, §3
as §4, with “The” for “Borosilicate glass micropipettes were fire-polished to a tip diameter yielding a resistance of 2-4 Mohms in the working solutions. The”
as §5
The membrane potential was maintained at a voltage where inactivation of the channel is complete (which was −60 mV for both NaV1.7 and NaV1.5). […] The percent decrease in sodium current following wash-on of compound was taken as the percent block of sodium channels.

hNaV1.7 [2] = target: T1, hNaV1.7; assay: Competitive binding of tritiated compound to membranes from cells expressing hNav1.7 and the β1 subunit; conditions: 100 pM [3H]compound, 18 h, room temperature; read-out: NaV1.7 395 Membrane Binding IC50
In short: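 Membranes from cells expressing hNav1.7 with β1 subunit incubated 18 h at room temperature with 100 pM tritiated reference compound and test compound in 100 mM NaCl, 20 mM Tris HCl, pH 7.4. Nonspecific binding defined with 1 μM unlabelled compound; bound radioactivity counted after GF/C filtration. IC50 from 4-parameter logistic fit.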

hNaV1.5, sequence (Q14524 whole entry): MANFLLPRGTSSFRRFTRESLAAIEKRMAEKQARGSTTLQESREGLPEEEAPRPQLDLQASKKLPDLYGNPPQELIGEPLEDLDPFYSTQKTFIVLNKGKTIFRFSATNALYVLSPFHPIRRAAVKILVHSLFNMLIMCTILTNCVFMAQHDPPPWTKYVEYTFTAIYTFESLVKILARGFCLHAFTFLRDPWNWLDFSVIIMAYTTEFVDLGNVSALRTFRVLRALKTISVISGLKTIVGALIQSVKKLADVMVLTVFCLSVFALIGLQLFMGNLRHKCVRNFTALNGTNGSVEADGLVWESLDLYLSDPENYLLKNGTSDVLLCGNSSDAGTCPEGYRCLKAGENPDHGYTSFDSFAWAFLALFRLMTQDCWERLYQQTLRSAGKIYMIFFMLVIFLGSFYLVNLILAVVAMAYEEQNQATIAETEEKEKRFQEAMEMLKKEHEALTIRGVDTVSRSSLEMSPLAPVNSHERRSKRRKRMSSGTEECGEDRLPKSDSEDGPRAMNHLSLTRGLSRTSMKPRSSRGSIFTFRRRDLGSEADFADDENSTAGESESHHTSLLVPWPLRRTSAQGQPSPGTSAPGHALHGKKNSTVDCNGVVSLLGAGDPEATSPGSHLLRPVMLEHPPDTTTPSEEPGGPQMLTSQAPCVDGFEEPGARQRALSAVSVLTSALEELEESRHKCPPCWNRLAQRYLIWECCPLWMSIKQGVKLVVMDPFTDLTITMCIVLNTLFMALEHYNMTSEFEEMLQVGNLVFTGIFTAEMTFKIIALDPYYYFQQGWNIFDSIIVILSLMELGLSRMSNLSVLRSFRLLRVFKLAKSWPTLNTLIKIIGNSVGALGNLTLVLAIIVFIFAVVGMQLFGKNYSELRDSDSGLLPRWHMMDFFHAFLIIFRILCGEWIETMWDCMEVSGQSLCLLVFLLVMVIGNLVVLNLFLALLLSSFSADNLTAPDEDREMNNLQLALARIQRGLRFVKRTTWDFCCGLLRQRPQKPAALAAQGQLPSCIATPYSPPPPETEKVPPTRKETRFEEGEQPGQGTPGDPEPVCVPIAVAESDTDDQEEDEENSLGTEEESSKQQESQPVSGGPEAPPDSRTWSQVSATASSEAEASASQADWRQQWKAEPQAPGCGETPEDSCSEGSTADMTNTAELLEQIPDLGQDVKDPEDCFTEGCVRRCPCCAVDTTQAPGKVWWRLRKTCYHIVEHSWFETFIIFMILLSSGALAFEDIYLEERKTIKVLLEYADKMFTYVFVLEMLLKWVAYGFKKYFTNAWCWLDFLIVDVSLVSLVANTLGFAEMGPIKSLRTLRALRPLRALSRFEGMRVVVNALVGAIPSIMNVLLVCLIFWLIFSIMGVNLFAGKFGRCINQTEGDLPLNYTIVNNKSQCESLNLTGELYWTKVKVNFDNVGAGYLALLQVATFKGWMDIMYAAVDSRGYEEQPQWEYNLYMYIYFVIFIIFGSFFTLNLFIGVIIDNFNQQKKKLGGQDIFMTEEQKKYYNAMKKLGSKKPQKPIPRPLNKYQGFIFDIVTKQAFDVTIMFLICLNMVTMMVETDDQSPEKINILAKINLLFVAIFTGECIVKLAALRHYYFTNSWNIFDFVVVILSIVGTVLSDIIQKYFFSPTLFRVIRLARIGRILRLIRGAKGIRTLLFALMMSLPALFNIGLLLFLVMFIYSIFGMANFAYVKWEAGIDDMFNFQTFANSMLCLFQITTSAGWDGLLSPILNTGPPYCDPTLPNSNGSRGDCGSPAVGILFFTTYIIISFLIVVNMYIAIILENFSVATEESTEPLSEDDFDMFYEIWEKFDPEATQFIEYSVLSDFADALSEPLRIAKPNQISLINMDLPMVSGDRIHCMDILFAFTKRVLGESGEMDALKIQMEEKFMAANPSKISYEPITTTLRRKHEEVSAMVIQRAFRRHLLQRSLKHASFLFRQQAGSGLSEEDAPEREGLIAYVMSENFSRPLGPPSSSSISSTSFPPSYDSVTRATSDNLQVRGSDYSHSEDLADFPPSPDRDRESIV

SMILES | pIC50 (hNaV1.5) | pIC50 (hNaV1.7 [1]) | pIC50 (hNaV1.7 [2])
CC(C)COc1ncc(Oc2cc(F)c(C(=O)NS(=O)(=O)N(C)C)cc2Cl)cc1Cl [Preparation 3, 5-chloro-4-((5-chloro-6-isobutoxypyridin-3-yl)oxy)-N-(N,N-dimethylsulfamoyl)-2-fluorobenzamide] | 5.66 | 7.96 | 7.61
CNS(=O)(=O)NC(=O)c1cc(Cl)c(Oc2cnc(OCC(C)C)c(Cl)c2)cc1F [Preparation 6, 5-chloro-4-((5-chloro-6-isobutoxypyridin-3-yl)oxy)-2-fluoro-N-(N-methylsulfamoyl) benzamide] | 5.14 | 8.22 | 8.07
CC(C)Oc1ncc(OCc2cc(F)c(C(=O)NS(=O)(=O)N3CCC3)cc2Cl)cc1Cl [Preparation 82] |  | 8.21 | 7.37
CC(C)Oc1ncc(Oc2ccc(C(=O)NS(=O)(=O)N3CCC3)cc2C2CC2)cc1Cl [Preparation 84] | 5.46 | 8.08 | 7.60
COc1ncccc1-c1cc(C(=O)NS(=O)(=O)N2CCC2)ccc1Oc1cnc(OC(C)C)c(Cl)c1 [Preparation 86] | < 5.00 | 7.66 | 7.96
CC(C)Oc1ncc(Oc2cc(F)c(C(=O)NS(=O)(=O)N3CCC3)cc2C2CC2)cc1Cl [Preparation 87] | 5.92 | 8.68 | 8.22
C=Cc1cc(C(=O)NS(=O)(=O)N2CCC2)c(F)cc1Oc1cnc(OC(C)C)c(Cl)c1 [Preparation 91] | 5.59 | 8.17 | 8.30
C=Cc1cc(C(=O)NS(=O)(=O)N2CCC2)c(F)cc1Oc1cnc(OCC(F)(F)F)c(Cl)c1 [Preparation 92] |  | 8.37 | 7.96
